Experimental data: patent US10653146B2, “Microbiocidal oxadiazole derivatives” (SYNGENTA PARTICIPATIONS AG, priority 2016, dated 2020)

What was measured:
[1] = system: Puccinia recondita f. Sp. Tritici; test: Fungicidal activity against Puccinia recondita f. sp. tritici / wheat / leaf disc preventative (brown rust); type: in vivo; details: foliar, 200 ppm in the applied formulation, wheat leaf segments cv. Kanzler, inoculated 1 day after application, assessed 7 to 9 days after application, read-out: disease control compared to untreated control leaf disks
Protocol: Leaf disks or leaf segments of various plant species are cut from plants grown in a greenhouse. The cut leaf disks or segments are placed in multiwell plates (24-well format) onto water agar. The leaf disks are sprayed with a test solution before (preventative) or after (curative) inoculation. Compounds to be tested are prepared as DMSO solutions (max. 10 mg/ml) which are diluted to the appropriate concentration with 0.025% Tween20 just before spraying. The inoculated leaf disks or segments are incubated under defined conditions (temperature, relative humidity, light, etc.) according to the respective test system. A single evaluation of disease level is carried out 3 to 14 days after inoculation, depending on the pathosystem. Percent disease control relative to the untreated check leaf disks or segments is then calculated. Wheat leaf segments cv. Kanzler were placed on agar in multiwell plates (24-well format) and sprayed with the formulated test compound diluted in water. The leaf disks were inoculated with a spore suspension of the fungus 1 day after application. The inoculated leaf segments were incubated at 19° C. and 75% relative humidity (rh) under a light regime of 12 hours light/12 hours darkness in a climate cabinet and the activity of a compound was assessed as percent disease control compared to untreated when an appropriate level of disease damage appears in untreated check leaf segments (7 to 9 days after application). The following compounds at 200 ppm in the applied formulation give at least 80% disease control in this test when compared to untreated control leaf disks under the same conditions, which show extensive disease development.

[2] = system: Glomerella lagenarium (Colletotrichum lagenarium); test: Fungicidal activity against Glomerella lagenarium (Colletotrichum lagenarium) liquid culture / cucumber / preventative (anthracnose); type: cell-based; details: Colletotrichum orbiculare; 20 ppm in the applied formulation; liquid culture in PDB, 24° C.; 3 to 4 days after application; read-out: disease control compared to untreated control (inhibition of growth measured photometrically)
Protocol: Mycelia fragments or conidia suspensions of a fungus prepared either freshly from liquid cultures of the fungus or from cryogenic storage, are directly mixed into nutrient broth. DMSO solutions of the test compound (max. 10 mg/ml) are diluted with 0.025% Tween20 by a factor of 50 and 10 μl of this solution is pipetted into a microtiter plate (96-well format). The nutrient broth containing the fungal spores/mycelia fragments is then added to give an end concentration of the tested compound. The test plates are incubated in the dark at 24° C. and 96% relative humidity. The inhibition of fungal growth is determined photometrically after 2 to 7 days, depending on the pathosystem, and percent antifungal activity relative to the untreated check is calculated.
Conidia of the fungus from cryogenic storage are directly mixed into nutrient broth (PDB—potato dextrose broth). After placing a (DMSO) solution of test compound into a microtiter plate (96-well format), the nutrient broth containing the fungal spores is added. The test plates are incubated at 24° C. and the inhibition of growth is measured photometrically 3 to 4 days after application.
The following compounds at 20 ppm in the applied formulation give at least 80% disease control in this test when compared to untreated control under the same conditions, which show extensive disease development.

[3] = system: Puccinia recondite f. Sp. Tritici; test: Fungicidal activity against Puccinia recondite f. sp. tritici / wheat / leaf disc curative (brown rust); type: in vivo; details: foliar, 200 ppm in the applied formulation, wheat leaf segments cv. Kanzler, applied 1 day after inoculation, assessed 6 to 8 days after application, read-out: disease control compared to untreated control leaf disks
Protocol: Leaf disks or leaf segments of various plant species are cut from plants grown in a greenhouse. The cut leaf disks or segments are placed in multiwell plates (24-well format) onto water agar. The leaf disks are sprayed with a test solution before (preventative) or after (curative) inoculation. Compounds to be tested are prepared as DMSO solutions (max. 10 mg/ml) which are diluted to the appropriate concentration with 0.025% Tween20 just before spraying. The inoculated leaf disks or segments are incubated under defined conditions (temperature, relative humidity, light, etc.) according to the respective test system. A single evaluation of disease level is carried out 3 to 14 days after inoculation, depending on the pathosystem. Percent disease control relative to the untreated check leaf disks or segments is then calculated.
Wheat leaf segments cv. Kanzler are placed on agar in multiwell plates (24-well format). The leaf segments are then inoculated with a spore suspension of the fungus. Plates were stored in darkness at 19° C. and 75% relative humidity. The formulated test compound diluted in water was applied 1 day after inoculation. The leaf segments were incubated at 19° C. and 75% relative humidity under a light regime of 12 hours light/12 hours darkness in a climate cabinet and the activity of a compound was assessed as percent disease control compared to untreated when an appropriate level of disease damage appears in untreated check leaf segments (6 to 8 days after application).
The following compounds at 200 ppm in the applied formulation give at least 80% disease control in this test when compared to untreated control leaf disks under the same conditions, which show extensive disease development.

| melting point [°C] | Structure (SMILES) | pest or weed control at 200 ppm [1] [%] | inhibition at 20 ppm [2] [%] | pest or weed control at 200 ppm [3] [%] |
| --- | --- | --- | --- | --- |
| 140 to 144 | O=C(C(=O)N1CCOCC1)c1ccc(-c2noc(C(F)(F)F)n2)cc1 [Compound 1.35, 1-morpholino-2-[4-[5-(trifluoromethyl)-1,2,4-oxadiazol-3-yl]phenyl]ethane-1,2-dione] | ≥ 80 | ≥ 80 | ≥ 80 |
| 128.1 to 130.8 | CNC(=O)C(=O)c1ccc(-c2noc(C(F)(F)F)n2)cc1 [Compound 1.17, N-methyl-2-oxo-2-[4-[5-(trifluoromethyl)-1,2,4-oxadiazol-3-yl]phenyl]acetamide] | ≥ 80 | ≥ 80 | ≥ 80 |
| – | CSCCNC(=O)C(=O)c1ccc(-c2noc(C(F)(F)F)n2)cc1 [Compound 1.23, N-(2-methyl-sulfanylethyl)-2-oxo-2-[4-[5-(trifluoromethyl)-1,2,4-oxadiazol-3-yl]phenyl]acetamide] | ≥ 80 | ≥ 80 | ≥ 80 |
| 134 to 138 | CN(C)NC(=O)C(=O)c1ccc(-c2noc(C(F)(F)F)n2)cc1 [Compound 1.19, N′,N′-dimethyl-2-oxo-2-[4-[5-(trifluoromethyl)-1,2,4-oxadiazol-3-yl]phenyl]aceto-hydrazide] | ≥ 80 | ≥ 80 | ≥ 80 |
| – | O=C(NCC(F)F)C(=O)c1ccc(-c2noc(C(F)(F)F)n2)cc1 [Compound 1.10, N-(2,2-difluoroethyl)-2-oxo-2-[4-[5-(trifluoromethyl)-1,2,4-oxadiazol-3-yl]phenyl]acetamide] | ≥ 80 | ≥ 80 | ≥ 80 |
| 104 to 110 | O=C(C(=O)N1CCCC1)c1ccc(-c2noc(C(F)(F)F)n2)cc1 [Compound 1.20, 1-pyrrolidin-1-yl-2-[4-[5-(trifluoromethyl)-1,2,4-oxadiazol-3-yl]phenyl]ethane-1,2-dione] | ≥ 80 | ≥ 80 | ≥ 80 |
| – | CCON(C)C(=O)C(=O)c1ccc(-c2noc(C(F)(F)F)n2)cc1 [Compound 1.32, N-ethoxy-N-methyl-2-oxo-2-[4-[5-(trifluoromethyl)-1,2,4-oxadiazol-3-yl]phenyl]acetamide] | ≥ 80 | ≥ 80 | ≥ 80 |
| – | COCCN(CCOC)C(=O)C(=O)c1ccc(-c2noc(C(F)(F)F)n2)cc1 [Compound 1.30, N,N-bis(2-methoxyethyl)-2-oxo-2-[4-[5-(trifluoromethyl)-1,2,4-oxadiazol-3-yl]phenyl]acetamide] | – | ≥ 80 | ≥ 80 |
| – | CC(=O)NCCNC(=O)C(=O)c1ccc(-c2noc(C(F)(F)F)n2)cc1 [Compound 1.11, N-(2-acetamidoethyl)-2-oxo-2-[4-[5-(trifluoromethyl)-1,2,4-oxadiazol-3-yl]phenyl]acetamide] | ≥ 80 | ≥ 80 | ≥ 80 |
| 209 to 210 | O=C(NCCNC(=O)C1CC1)C(=O)c1ccc(-c2noc(C(F)(F)F)n2)cc1 [Compound 1.8, N-[2-[[2-oxo-2-[4-[5-(trifluoromethyl)-1,2,4-oxadiazol-3-yl]phenyl]acet-yl]amino]eth-yl]cyclopropane-carboxamide] | ≥ 80 | ≥ 80 | – |
| – | COCCNC(=O)C(=O)c1ccc(-c2noc(C(F)(F)F)n2)cc1 [Compound 1.40, N-(2-methoxy-ethyl)-2-oxo-2-[4-[5-(trifluoromethyl)-1,2,4-oxadiazol-3-yl]phenyl]acetamide] | ≥ 80 | ≥ 80 | ≥ 80 |
| – | O=C(NCC1COCCO1)C(=O)c1ccc(-c2noc(C(F)(F)F)n2)cc1 (centres unmarked) [Compound 1.28, N-(1,4-dioxan-2-ylmethyl)-2-oxo-2-[4-[5-(trifluoromethyl)-1,2,4-oxadiazol-3-yl]phenyl]acetamide] | ≥ 80 | ≥ 80 | ≥ 80 |
| 89 to 90 | COC(=O)CNC(=O)C(=O)c1ccc(-c2noc(C(F)(F)F)n2)cc1 [Compound 1.36, methyl 2-[[2-oxo-2-[4-[5-(trifluoromethyl)-1,2,4-oxadiazol-3-yl]phenyl]acet-yl]amino]acetate] | – | ≥ 80 | ≥ 80 |
| – | CN(C)CCNC(=O)C(=O)c1ccc(-c2noc(C(F)(F)F)n2)cc1 [Compound 1.2, N-[2-(dimethyl-amino)ethyl]-2-oxo-2-[4-[5-(trifluoromethyl)-1,2,4-oxadiazol-3-yl]phenyl]acetamide] | – | ≥ 80 | – |
| – | CN(C)C(=O)C(=O)c1ccc(-c2noc(C(F)(F)F)n2)cc1 [Compound 1.5, N,N-dimethyl-2-oxo-2-[4-[5-(trifluoromethyl)-1,2,4-oxadiazol-3-yl]phenyl]acetamide] | ≥ 80 | ≥ 80 | ≥ 80 |
| – | CCCN(C)C(=O)C(=O)c1ccc(-c2noc(C(F)(F)F)n2)cc1 [Compound 1.22, N-methyl-2-oxo-N-propyl-2-[4-[5-(trifluoromethyl)-1,2,4-oxadiazol-3-yl]phenyl]acetamide] | ≥ 80 | ≥ 80 | ≥ 80 |
| – | C=CCONC(=O)C(=O)c1ccc(-c2noc(C(F)(F)F)n2)cc1 [Compound 1.6, N-allyloxy-2-oxo-2-[4-[5-(trifluoromethyl)-1,2,4-oxadiazol-3-yl]phenyl]acetamide] | ≥ 80 | – | – |
| – | O=C(NOCC(F)F)C(=O)c1ccc(-c2noc(C(F)(F)F)n2)cc1 [Compound 1.4, N-(2,2-difluoroethoxy)-2-oxo-2-[4-[5-(trifluoromethyl)-1,2,4-oxadiazol-3-yl]phenyl]acetamide] | ≥ 80 | ≥ 80 | – |
| – | CN(C(=O)C(=O)c1ccc(-c2noc(C(F)(F)F)n2)cc1)c1ccccc1 [Compound 1.33, N-methyl-2-oxo-N-phenyl-2-[4-[5-(trifluoromethyl)-1,2,4-oxadiazol-3-yl]phenyl]acetamide] | – | ≥ 80 | – |
| – | Cc1ccsc1CN(C)C(=O)C(=O)c1ccc(-c2noc(C(F)(F)F)n2)cc1 [Compound 1.29, N-methyl-N-[(3-methyl-2-thienyl)methyl]-2-oxo-2-[4-[5-(trifluoromethyl)-1,2,4-oxadiazol-3-yl]phenyl]acetamide] | – | ≥ 80 | – |
| – | CON1CCN(C(=O)C(=O)c2ccc(-c3noc(C(F)(F)F)n3)cc2)CC1 [Compound 1.3, 1-(4-methoxypiperazin-1-yl)-2-[4-[5-(trifluoromethyl)-1,2,4-oxadiazol-3-yl]phenyl]ethane-1,2-dione] | ≥ 80 | ≥ 80 | – |
